Results reported in patent US20060204957A1, “Mta1s, a steriod hormone receptor corepressor” (priority 2002, published 2006).

How the values were obtained:
ERα = molecular target: T1, ERα (Homo sapiens, UniProt P03372); conditions: yeast AH109 two-hybrid
T1 sequence (P03372 1-536): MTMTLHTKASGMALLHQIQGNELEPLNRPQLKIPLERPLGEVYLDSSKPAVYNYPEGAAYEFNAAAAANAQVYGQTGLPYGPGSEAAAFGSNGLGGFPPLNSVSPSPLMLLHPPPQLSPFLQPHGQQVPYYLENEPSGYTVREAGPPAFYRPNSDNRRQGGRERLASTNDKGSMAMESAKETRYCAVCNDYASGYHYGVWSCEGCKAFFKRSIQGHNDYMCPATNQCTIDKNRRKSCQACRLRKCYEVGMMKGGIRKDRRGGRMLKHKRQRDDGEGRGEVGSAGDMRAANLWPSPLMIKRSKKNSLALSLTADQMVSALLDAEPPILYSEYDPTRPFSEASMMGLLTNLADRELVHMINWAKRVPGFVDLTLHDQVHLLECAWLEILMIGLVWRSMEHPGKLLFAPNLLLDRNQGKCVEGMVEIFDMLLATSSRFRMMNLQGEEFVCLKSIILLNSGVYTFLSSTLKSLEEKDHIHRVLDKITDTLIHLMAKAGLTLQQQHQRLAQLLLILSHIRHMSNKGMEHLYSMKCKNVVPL
T1 sequence (Q13330 1-429 isoform Q13330-2 partner limits assumed): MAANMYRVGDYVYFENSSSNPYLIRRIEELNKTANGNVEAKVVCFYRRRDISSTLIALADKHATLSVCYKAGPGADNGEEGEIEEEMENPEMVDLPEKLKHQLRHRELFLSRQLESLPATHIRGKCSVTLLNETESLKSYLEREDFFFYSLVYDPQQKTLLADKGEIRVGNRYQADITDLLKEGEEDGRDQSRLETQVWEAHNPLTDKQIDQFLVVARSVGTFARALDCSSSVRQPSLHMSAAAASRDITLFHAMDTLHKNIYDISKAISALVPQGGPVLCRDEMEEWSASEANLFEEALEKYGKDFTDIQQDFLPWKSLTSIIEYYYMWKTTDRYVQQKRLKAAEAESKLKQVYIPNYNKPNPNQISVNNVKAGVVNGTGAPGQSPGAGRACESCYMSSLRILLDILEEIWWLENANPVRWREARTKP

ER = test: Confocal localization of ER in ZR-75R clones after estradiol; type: cell-based, human
Procedure: FIGS. 3A-3H. MTA1s typically localizes in the cytoplasm and interacts with ER. FIG. 3A illustrates an example of confocal microscopy of MCF-7 cells transiently transfected with T7-tagged MTA1 or MTA1s constructs. FIG. 3B illustrates exemplary expression of T7-MTA1s in ZR75 clones. FIG. 3C illustrates exemplary nuclear and cytoplasmic fractions that were assessed by immunoblotting with the indicated antibodies. […] FIG. 3F illustrates exemplary GST pull-down assays. […] FIG. 3H illustrates an example of expression of MTA1s and ERα in indicated cells by confocal microscopy.
The cellular localization of T7-MTA1s, and ER was determined using indirect immunofluorescence as described in Mazumdar et al., 2001, herein incorporated by reference. Cells were treated with or without anti-T7 mAb or ER Ab followed by 546-Alexa-labeled goat anti-mouse Ab or 488-Alexa.

ZR-75R cells = test: Growth of ZR-75R cells in monolayer culture; type: cell-based, human
Description: FIGS. 11A-11E. MTA1s may stimulate aggressive phenotypes in breast cancer cells. FIG. 11A illustrates an example of MTA1s overexpression inhibiting PRE-driven but not RARE-driven transcription. FIG. […] illustrates the Growth-rate of ZR/pcDNA or ZR/MTA1s cells in monolayer culture in the presence of E2 alone or with ICI 182780 (10^−9 M for 4 days). FIG. 11C show an exemplary effect of MTA1s expression on anchorage independent growth of ZR/pcDNA and ZR/MTA1s cells grown in 10% serum in the presence or absence of ICI 182780 (10^−9 M) or 4HT (10^−8 M) for 14 days. […] FIG. 11E illustrates that MTA1s may induce tumorigenesis of breast cancer cells. 5×10^6 cells were subcutaneously inoculated in the athymic nude mice (n=10), and tumor volumes at day 21 were recorded.

[1] = tested on: PRE-mediated transcription; test: PRE-mediated transcription in ZR-75R cells; type: cell-based, human; conditions: MTA1s-overexpressing ZR-75R cells
Procedure: Transfection was performed using a Fugene-6 kit (Roche Biochemical, New Jersey) as per the manufacturer's instructions. Cells were transiently cotransfected with a reporter construct and (β-galactosidase, and assayed for luciferase activity as described.

C[C@]12CC[C@@H]3c4ccc(O)cc4C[C@@H](CCCCCCCCC[S+]([O-])CCCC(F)(F)C(F)(F)F)[C@H]3[C@@H]1CC[C@@H]2O (stereo partly drawn) [ICI 182780]
effect on interaction between ERα and MTA1s (ERα): failed to block

C[C@]12CC[C@@H]3c4ccc(O)cc4CC[C@H]3[C@@H]1CC[C@@H]2O [estradiol, 17β-estradiol]
redistribution of ER to the nucleus (ER; ZR-75R/vector cells): rapidly redistributed the ER to the nucleus | cells in which ER was not redistributed to the nucleus (ER; estradiol-activated ZR-75R/MTA1s cells): over 90% | cell growth response (ZR-75R cells; ZR-75R cells expressing MTA1s): did not respond | cell growth (ZR-75R cells; ZR-75R cells expressing control vector): stimulated

CC(=O)[C@H]1CC[C@H]2[C@@H]3CCC4=CC(=O)CC[C@]4(C)[C@H]3CC[C@]12C [progesterone]
stimulation of PRE-mediated transcription [1]: failed to stimulate
